{
  "source": "ChEMBL document CHEMBL1152340",
  "about": "“Flavonoid glucuronides and a chromone from the aquatic macrophyte Stratiotes aloides” (2009)",
  "key": {"SH-SY5Y [1]": {"tested_on": "SH-SY5Y", "experiment": "Cytotoxicity against human SH-SY5Y cells after 4 days by DAPI staining method", "format": "functional, cell-based"}, "SH-SY5Y [2]": {"tested_on": "SH-SY5Y", "experiment": "Induction of apoptosis in human SH-SY5Y cells assessed as DNA fragmentation at 50 uM after 4 days by Hoechst 33342 method", "format": "functional, cell-based"}, "SH-SY5Y [3]": {"tested_on": "SH-SY5Y", "experiment": "Cytotoxicity against human SH-SY5Y cells at 50 uM after 4 days by DAPI staining method", "format": "functional"}, "[4]": {"experiment": "Cytotoxicity against human PA-TU-8902 cells at 50 uM after 4 days by DAPI staining method relative to control", "format": "functional"}, "SH-SY5Y [5]": {"tested_on": "SH-SY5Y", "experiment": "Cytotoxicity against human SH-SY5Y cells at 10 uM after 4 days by DAPI staining method", "format": "functional"}},
  "note": "Active and inactive are the calls of the source. The calls are words filed in the database; no cut-off is given here.",
  "data": [
    {"smiles": "O=C(O)[C@H]1O[C@@H](O[C@H]2[C@H](Oc3cc(O)c4c(=O)cc(-c5ccc(O)c(O)c5)oc4c3)O[C@H](CO)[C@@H](O)[C@@H]2O)[C@H](O)[C@@H](O)[C@@H]1O", "values": [
      {"measurement": "Activity", "setting": "SH-SY5Y [1]", "result": "Dose-dependent effect"},
      {"measurement": "Activity", "setting": "SH-SY5Y [2]", "result": "Active"},
      {"measurement": "Activity", "setting": "SH-SY5Y [3]", "result": 75, "unit": "%"},
      {"measurement": "Activity", "setting": "[4]", "result": 20, "unit": "%"},
      {"measurement": "Activity", "setting": "SH-SY5Y [5]", "result": 75, "unit": "%"}
    ]}
  ]
}
